Values joined by “and” are separate entries in the source; they are usually repeats but may differ in a detail not shown here. Equal values may be shown once. “Also recorded” adds a separate entry of the source. Read-outs that look alike come from different tables or passages of the source.
Key:
[1] = tested on: vitamin D-deficient chicks; test: Anti-rachitogenic activity in chicks (tibia ash weight); format: in vivo, chick (White Leghorn cockerels); details: for Mean tibia ash weight ± S.E.: 21 days oral dosing, 9-10 chicks per group, vehicle 120.9 ± 8.3
Protocol: One-day-old White Leghorn cockerels are placed on a vitamin D-deficient diet which contains 1% calcium and 0.7% phosphorous and are housed under ultraviolet-free lighting (General Electric F40G0 gold fluorescent lights). Compounds are dissolved in propylene glycol and administered orally in a volume of 0.2 ml for 21 consecutive days to chicks which are one to two days of age at the start of treatment. Controls are treated with vehicle alone. Compounds are prepared in amber flasks and the solutions are flushed with argon and refrigerated after each dosing period. Chicks are autopsied on the day after the last treatment day. Blood is collected for determination of serum calcium and phosphorus and tibia dry weight and ash weight are determined. Usually, ten chicks are used for each treatment group and for the control group. The results of the 1α,25-dihydroxy-24R-fluorocholecalciferol anti-rachitogenic activity assay are shown in Table I along with comparative data showing the anti-rachiotogenic activity of 24,24-difluoro 1α,25-dihydroxycholecalciferol.

[2] = tested on: EHDP-Induced Mineralization Block; test: Prevention of EHDP-induced mineralization block in rats (tibial epiphyseal plate width); format: in vivo, rat (Charles River CD male); details: 10 days; for Mean tibial epiphyseal plate width: with EHDP
Protocol: Charles River CD male rats are treated for 10 consecutive days. Rats are 21 days of age at the start of treatment. Ethane-1-hydroxy-1,1-diphosphonate (EHDP) is given subcutaneously on each treatment day at a dose of 3 mg/0.2 ml/rat in distilled water. Test compounds are administered orally on each treatment day in propylene glycol (0.2 ml/rat). Rats are autopsied on the day after the last treatment day and tibias are processed by a modified von Kossa procedure based upon silver impregnation of bone salts. Epiphyseal plate widths are measured with a micrometer ocular using standard microscopic magnification (35×). Activity is based upon dose-dependent narrowing of the widened epiphyseal plate induced by EHDP. Ten rats are used in each treatment group. Positive (EHDP alone) and negative (vehicles alone) control groups of ten rats each are included in each experiment.

[3] = Pharmacokinetics in dogs, plasma half-life after intravenous administration; details: dog, in vivo, 0.0003 mg/kg
Protocol: The plasma level profiles of 1α,25-dihydroxy-24R-fluorocholecalciferol and 1α,25-dihydroxycholecalciferol are compared in the dog after a single intraveneous dose. Each compound is studied in four dogs with a two-week "washout" period between compounds. The compounds are administered intravenously as solutions (2.5 mg/ml) in propylene glycol at a dose level of 0.3 μg/kg. At selected time points 5 ml of heparinized blood are collected, placed in ice and centrifuged in the cold. Plasma is separated and frozen immediately.
Plasma concentrations are determined by procedures routinely employed for the measurements of circulating levels of 1α,25-dihydroxycholecalciferol.

[4] = tested on: intestinal calcium absorption; test: Intestinal calcium absorption in vitamin D-deficient chicks (serum 45Ca); format: in vivo, chick (Leghorn cockerels)
Protocol: While Leghorn one-day-old cockerels are placed on a vitamin D-deficient diet and are housed under ultraviolet-free lighting for 21 days. Chicks are then used to determine the effects of test compounds on intestinal calcium absorption. A single oral dose of test compound dissolved in propylene glycol is administered. At various times after dosing, 2 uCi of ^45 Ca (chloride) is given orally, and serum radioactivity is measured 45 minutes after administration of the isotope. Ten chicks are used in each treatment and control group and vehicle-treated controls are included at each time period.

[5] = 2.5 picomoles/rat/day p.o., vehicles 447, EHDP alone 1502
[6] = 7.5 picomoles/rat/day p.o., vehicles 416, EHDP alone 1390
[7] = 25 picomoles/rat/day p.o., vehicles 435, EHDP alone 1684
[8] = 75 picomoles/rat/day p.o., vehicles 448, EHDP alone 1332
[9] = 250 picomoles/rat/day p.o., vehicles 428, EHDP alone 1385

Structure (SMILES)	Mean tibia ash weight ± S.E. ([1]; 3 ng/chick/day)	Mean tibia ash weight ± S.E. ([1]; 10 ng/chick/day)	Mean tibia ash weight ± S.E. ([1]; 30 ng/chick/day)	Mean tibial epiphyseal plate width, EHDP alone (positive control) ([2]; EHDP 3 mg/0.2 ml/rat s.c., control groups of the 2.5, 7.5, 25, 75, 250 pmol)	half-life ([3]; 0.3 mcg/kg, i.v., dogs, read-out: Plasma half-life (converted))	Mean tibial epiphyseal plate width [2, 5]	Mean tibial epiphyseal plate width [2, 6]	Mean tibial epiphyseal plate width [2, 7]	Mean tibial epiphyseal plate width [2, 8]	Mean tibial epiphyseal plate width [2, 9]	Anti-rachitogenic activity (in words) ([1]; oral, 21 consecutive days)	half-life [3]	Prevention of EHDP-induced mineralization block (in words) ([2]; oral, rats)	Serum 45Ca ([4]; 24 hr after single oral dose, vehicle 408 ± 30, *** statistically significant)	Serum 45Ca ([4]; 48 hr after single oral dose, vehicle 439 ± 30, not statistically significant)	Serum 45Ca ([4]; 72 hr after single oral dose, vehicle 398 ± 31, not statistically significant)	Duration of activity in stimulation of intestinal calcium absorption versus 1α,25-dihydroxycholecalciferol (in words) ([4]; single oral 100 nanogram dose)
C=C1/C(=C\C=C2/CCC[C@]3(C)[C@@H]([C@H](C)CCC(F)(F)C(C)(C)O)CC[C@@H]23)C[C@@H](O)C[C@@H]1O [24,24-difluoro 1α,25-dihydroxycholecalciferol, reference compound]	192.2 ± 6.2 mg	258.6 ± 10.0 mg	229.8 ± 14.2 mg														
CC(O)(P(=O)(O)O)P(=O)(O)O [EHDP, Ethane-1-hydroxy-1,1-diphosphonate]				1502 Micra and 1390 Micra and 1684 Micra and 1332 Micra and 1385 Micra													
C=C1/C(=C\C=C2/CCC[C@]3(C)[C@@H]([C@H](C)CCCC(C)(C)O)CC[C@@H]23)C[C@@H](O)C[C@@H]1O [1α,25-dihydroxycholecalciferol]					3.6 h	1365 Micra	1240 Micra	1103 Micra	922 Micra	839 Micra							
C=C1/C(=C\C=C2/CCC[C@]3(C)[C@@H]([C@H](C)CC[C@@H](F)C(C)(C)O)CC[C@@H]23)C[C@@H](O)C[C@@H]1O [[1α,3β,5Z,7E,24R]-24-fluoro-9,10-secocholesta-5,7,10(19)-trien-1,3,25-triol]	293.3 ± 4.8 mg	330.4 ± 7.7 mg	337.9 ± 10.6 mg			1302 Micra	1031 Micra	1040 Micra	864 Micra	783 Micra	has shown activity in the anti-rachitogenic test in chicks; also recorded: possesses potent anti-rachitogenic activity	14.4 h	has shown activity in the test for the prevention of EHDP-Induced Mineralization Block in rats; also recorded: narrows the widening of the epiphyseal plate induced by EHDP	793 ± 73 CPM/0.2 ML	520 ± 38 CPM/0.2 ML	372 ± 39 CPM/0.2 ML	comparable to that of 1α,25-dihydroxycholecalciferol

Source: patent publication US4634692A, “Synthesis of 1α,25-dihydroxy-24R-fluorocholecalciferol and 1α,25-dihydroxy-24S-fluorocholecalciferol” (Hoffmann-La Roche Inc., priority 1984, dated 1987)
